In patent US5290553A, “Alkaloids of picralima nitida used for treatment of protozoal diseases” (The United States of America as represented by the …, priority 1991, dated 1994):
Values after ≈ are worked out from the molar mass of the structure shown. Read-outs that look alike come from different tables or passages of the source. Blank lines part the entries; values can stand above or below the molecule they belong to.

Columns and labels:
[1] = tested on: Plasmodium falciparum D-6 clone (Sierra Leone); assay: In vitro antimalarial assay, D-6 clone (tritiated hypoxanthine uptake); assay type: cell-based; settings: for IC50: Plasmodium falciparum, read-out: IC50, D-6 Clone
Experimental: (§1) The in vitro assays were performed by using a modification of the semi-automated microdilution technique described earlier in Desjardins et al.^29 and Milhous et al.^30 Two P. falciparum malaria parasite clones, designated as Indochina (W-2) and Sierra Leone (D-6), were utilized in susceptibility testing. The W-2 clone is resistant to chloroquine, pyrimethamine, sulfadoxine, and quinine, and the other clone is resistant to mefloquine. The test extracts were dissolved in dimethylsulfoxide (DMSO) and serially diluted with media. The uptake of tritiated hypoxanthine was used as an index of inhibition of parasite growth.
(§2) Two P. falciparum malaria parasite clones, designated as Indochina (W-2) and Sierra Leone (D-6), were utilized in susceptibility testing. The W-2 clone is resistant to chloroquine, pyrimethamine, sulfadoxine, and quinine, and the other clone is resistant to mafloquine.
(§3) The test extracts were dissolved in DMSO and serially diluted with media. The uptake of tritiated hypoxanthine was used an an index of inhibition of parasite growth.

[2] = tested on: Plasmodium falciparum W-2 clone (Indochina); assay: In vitro antimalarial assay, W-2 clone (tritiated hypoxanthine uptake); assay type: cell-based; settings: for IC50: Plasmodium falciparum, read-out: IC50, W-2 Clone
Experimental: as §1, §2, §3

[3] = relative to cocaine; cited from earlier work
malaria = settings: in vivo; cited from earlier work
avian malaria = settings: in vivo; cited from earlier work
[4] = tested on: W-2 and D-6 clones of Plasmodium falciparum; assay: In vitro antimalarial assay, statements on both clones; assay type: cell-based; settings: P. falciparum clones
Experimental: as §1
The in vitro assays were performed by using a modification of the semi-automated microdilution technique described earlier (Desjardins et al., 1979; Milhous et al., 1985). Two P. falciparum malaria parasite clones, designated as Indochina (W-2) and Sierra Leone (D-6), were utilized in susceptibility testing. The W-2 clone is resistant to chloroquine, pyrimethamine, sulfadoxine, and quinine, and the other clone is resistant to mafloquine.
as §3

opiate receptor = settings: from cell suspension culture of P. nitida; cited from earlier work
[5] = tested on: Leishmania (Leishmania) chagasi MHOM/BR/84/BA-13; settings: previously determined; cited from earlier work
[6] = tested on: Leishmania (Leishmania) chagasi promastigotes (MHOM/BR/84/BA-13); assay: Growth inhibition of leishmania promastigotes over 96 hours; assay type: cell-based
Experimental: A clinical isolate of visceral Leishmania (Leishmania) chagasi, MHOM/BR/84/BA-13, was used for this study. This isolate was selected because sensitivity to SbV was previously determined using RAM. MHOM/BR/84/BA-13 is sensitive to Pentostam (sodium antimony gluconate) at 6 μg/ml Sb (20 μg/ml drug); and to Glucantime (N-methyl-glucamine antimoniate) at 80 μg/ml Sb (286 μg/ml drug)
Promastigotes of L. chagasi were grown in a serum-free, defined medium, MM2^43. The MM2 medium contained 120 μg/ml protein (10 μg/ml human transferrin, 10 μg/ml human insulin, 100 μg/ml defatted bovine albumin), plus 10 μg/ml low density bovine lipoprotein. […] Cultures were maintained at 25° C. during growth and incubation with drug.
Promastigotes were maintained in log phase growth for 3 successive transfers (48-72 hours apart) prior to radiorespirometric testing. Test extracts (or PBSS plus drug solvent [DMSO], for parallel control cultures) was added 24 hours after the third promastigote transfer to fresh growth medium. Incubation in the presence of plant extracts was continued for 96 additional hours while the parasites remained in mid-log phase growth. The rest of the radiorespirometric procedure was conducted as previously described^45.

[7] = tested on: Trypanosoma brucei brucei; assay: In vivo antitrypanosomial activity, mouse; settings: 7 mg i.p.
[8] = tested on: Trypanosoma brucei brucei; assay: In vivo antitrypanosomial activity, rat; settings: 7 mg i.p.
[9] = Table 5, alkaloids and reference drugs

Molecule: CC=C1CN2CCC34c5ccccc5N(C)C35OCC4(C(=O)OC)C1CC25 (stereo not shown) [.PSI.-Aukuammigine]
IC50 [1]: 0.83 µg/mL (≈ 2.26 µM)
IC50 [2]: 0.1 µg/mL (≈ 0.273 µM)

IC50 [1, 9]: 0.004 µg/mL (≈ 0.0142 µM)
IC50 [2, 9]: 0.002 µg/mL (≈ 0.00708 µM)
Molecule: C[C@@H]1CC[C@H]2[C@@H](C)C(=O)O[C@@H]3O[C@@]4(C)CC[C@@H]1[C@]32OO4 [Artemisinin, reference compound]

Molecule: C/C=C1/CN2CC[C@@]34c5cc(O)ccc5N(C)[C@]35OC[C@@]4(C(=O)OC)[C@@H]1C[C@H]25 [Akuammine]
local anesthetic action [3]: local anesthetic action comparable to that of cocaine
IC50 [1, 9]: 0.95 µg/mL (≈ 2.48 µM)
activity in clinical trials (malaria): inactive
IC50 [2, 9]: 0.66 µg/mL (≈ 1.73 µM)
activity against avian malaria (avian malaria): inactive against avian malaria

Molecule: CC=C1CN2C3CC45c6ccccc6NC4(O3)C2CC1C5(COC(C)=O)C(=O)OC (stereo not shown) [Picraline]
IC50 [1, 9]: 0.78 µg/mL (≈ 1.9 µM)
IC50 [2, 9]: 0.53 µg/mL (≈ 1.29 µM)

Molecule: C/C=C1/C[N@+]2(C)CC[C@@]34c5ccccc5N[C@]32[C@@H](O)C[C@@H]1[C@@]4(CO)C(=O)OC [Echitamine, reference compound]
IC50, D-6 Clone [1, 9]: 4.68 µg/mL
antimalarial activity in vitro [4]: no activity
IC50, W-2 Clone [2, 9]: 7.25 µg/mL

Molecule: CC=C1CN2C3CC1C(CO)C2Cc1c3[nH]c2ccccc12 (stereo not shown) [PNF-S7]
IC50 [1, 9]: 7.6 µg/mL (≈ 25.8 µM)
IC50 [2, 9]: 10.6 µg/mL (≈ 36 µM)

Molecule: C/C=C1/CN2[C@H]3C[C@H]1[C@@H](CO)[C@@H]2Cc1c3[nH]c2ccc(O)cc12 [Sarpagine, reference compound]
IC50 [1, 9]: 16.6 µg/mL (≈ 53.6 µM)
IC50 [2, 9]: 29.2 µg/mL (≈ 94 µM)

Molecule: C=C1c2[nH]c3ccccc3c2CCN2CC[C@@H]1/C(=C\C)C2 [pericine]
CNS activity, opiate receptor binding (opiate receptor): CNS active

IC50 [1, 9]: 4.7 µg/mL (≈ 14.4 µM)
IC50 [2, 9]: 1.24 µg/mL (≈ 3.8 µM)
Molecule: CC[C@H]1[C@@H]2C[C@H]3[C@@H]4N(C)c5ccccc5[C@]45C[C@@H]([C@@H]2[C@H]5O)N3[C@@H]1O [Ajmaline, reference compound]

Molecule: N-methyl-glucamine antimoniate [Glucantime]
concentration at which isolate is sensitive, as Sb [5]: 80 μg/ml Sb
concentration at which isolate is sensitive, as drug [5]: 286 μg/ml drug

Molecule: CCN(CC)CCCC(C)Nc1ccnc2cc(Cl)ccc12 (stereo not shown) [Chloroquine, reference compound]
IC50 [1]: 0.006 µg/mL (≈ 0.0188 µM)
IC50 [2]: 0.04 µg/mL (≈ 0.125 µM)

Molecule: COC(=O)[C@@H]1[C@H]2C[C@H]3c4[nH]c5ccccc5c4CCN3C[C@@H]2CC[C@@H]1O [Yohimbine, reference compound]
IC50 [1]: 7.51 µg/mL (≈ 21.2 µM)
IC50 [2]: 6.16 µg/mL (≈ 17.4 µM)

IC50 [1, 9]: 0.02 µg/mL
IC50 [2, 9]: 0.09 µg/mL
Molecule: COC(=O)C1=CO[C@@H](C)[C@@H]2C[n+]3ccc4c([nH]c5ccccc54)c3C[C@H]12 [Alstonine]
inhibition of leishmania promastigotes, ranking ([6]; alkaloids isolated from the active fraction): greatest inhibition
concentration of the highest growth inhibition ([6]; leishmania promastigotes): 50 µg/mL
growth inhibition, dose relation ([6]; leishmania promastigotes): dose related activity

Molecule: C/C=C1/CN2CC[C@]34C(=C(C(=O)OC)[C@H]1C[C@H]23)Nc1ccccc14 [Akuammicine]
IC50 [1, 9]: 0.45 µg/mL (≈ 1.4 µM)
IC50 [2, 9]: 0.73 µg/mL (≈ 2.26 µM)

Molecule: sodium antimony gluconate [Pentostam]
concentration at which isolate is sensitive, as Sb [5]: 6 μg/ml Sb
concentration at which isolate is sensitive, as drug [5]: 20 μg/ml drug

IC50 [1, 9]: 2.76 µg/mL (≈ 7.83 µM)
IC50 [2, 9]: 2.86 µg/mL (≈ 8.11 µM)
Molecule: COC(=O)C1=CO[C@@H](C)[C@@H]2CN3CCc4c([nH]c5ccccc45)C3C[C@H]12 (stereo partly shown) [Alstonine (tetrahydro-)]

Molecule: N=C(N)c1ccc(N=NNc2ccc(C(=N)N)cc2)cc1 [Berenil]
Day of 0% Parasite Count [7]: 6 days
Day of 0% Parasite Count [8]: 8 days
